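Interpolation was linear, between the two tested concentrations surrounding the appropriate level; five concentrations were tested over 48 hours in 96-well plates. GI50 is the concentration that inhibits growth by half. TGI marks complete inhibition of growth.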
Legend:
Assay in all cases: NCI tumour cell line growth inhibition, 48 h
[1] = tested on: MOLT-4 leukemia
[2] = tested on: HL-60(TB) leukemia
[3] = tested on: NCI-H23 lung
[4] = tested on: SR leukemia
[5] = tested on: SK-MEL-2 melanoma
[6] = tested on: EKVX NSCLC
[7] = tested on: COLO 205 colon
[8] = tested on: RPMI-8226 leukemia
[9] = tested on: OVCAR-8 ovarian
[10] = tested on: 786-0 renal
[11] = tested on: HCT-116 colon
[12] = tested on: HS 578T breast
[13] = tested on: NCI-H226 lung
[14] = tested on: NCI-H460 lung
[15] = tested on: CAKI-1 renal
[16] = tested on: IGROV1 ovarian
[17] = tested on: T-47D breast
[18] = tested on: SF-295 CNS
[19] = tested on: RXF 393 renal
[20] = tested on: SF-268 CNS
[21] = tested on: HT29 colon
[22] = tested on: U251 CNS
[23] = tested on: MCF7 breast
[24] = tested on: OVCAR-3 ovarian
[25] = tested on: SNB-19 CNS
[26] = tested on: DU-145 prostate
[27] = tested on: TK-10 renal
[28] = tested on: MDA-MB-435
[29] = tested on: A498 renal
[30] = tested on: OVCAR-4 ovarian
[31] = tested on: SNB-75 CNS
[32] = tested on: NCI/ADR-RES ovarian
[33] = tested on: A549 NSCLC
[34] = tested on: SN12C renal
[35] = tested on: UACC-62 melanoma
[36] = tested on: NCI-H522 lung
[37] = tested on: HOP-92 NSCLC
[38] = tested on: M14 melanoma
[39] = tested on: MDA-MB-231 breast
[40] = tested on: ACHN renal
[41] = tested on: CCRF-CEM leukemia
[42] = tested on: SK-MEL-5 melanoma
[43] = tested on: OVCAR-5 ovarian
[44] = tested on: LOX IMVI melanoma
[45] = tested on: SK-MEL-28 melanoma
[46] = tested on: BT-549 breast
[47] = tested on: UACC-257 melanoma
[48] = tested on: SW-620 colon
[49] = tested on: KM12 colon
[50] = tested on: SK-OV-3 ovarian
[51] = tested on: MALME-3M melanoma
[52] = tested on: HOP-62 NSCLC
[53] = tested on: UO-31 renal
[54] = tested on: HCC-2998 colon
[55] = tested on: PC-3 prostate
[56] = tested on: HCT-15 colon
[57] = tested on: SF-539 CNS

O=c1[nH]ncc(Br)c1Br
GI50 [1]: 2.41 µM
TGI [1]: 5.19 µM
GI50 [2]: 2.22 µM
TGI [2]: 4.27 µM
GI50 [3]: 1.92 µM
TGI [3]: 3.54 µM
GI50 [4]: 0.911 µM
TGI [4]: 3.9 µM
GI50 [5]: 2.16 µM
TGI [5]: 5.62 µM
GI50 [6]: 2.87 µM
TGI [6]: 13.1 µM
GI50 [7]: 1.91 µM
TGI [7]: 3.32 µM
GI50 [8]: 1.91 µM
TGI [8]: 6.18 µM
GI50 [9]: 2.86 µM
TGI [9]: 10.8 µM
GI50 [10]: 4.08 µM
TGI [10]: 14.1 µM
GI50 [11]: 1.8 µM
TGI [11]: 3.42 µM
GI50 [12]: 2.23 µM
TGI [12]: 9.51 µM
GI50 [13]: 2.19 µM
TGI [13]: 5.96 µM
GI50 [14]: 13.1 µM
TGI [14]: 27.4 µM
GI50 [15]: 1.44 µM
TGI [15]: 2.74 µM
GI50 [16]: 1.72 µM
TGI [16]: 3.68 µM
GI50 [17]: 2.12 µM
TGI [17]: 6.07 µM
GI50 [18]: 8.8 µM
TGI [18]: 22.5 µM
GI50 [19]: 1.38 µM
TGI [19]: 2.71 µM
GI50 [20]: 3.02 µM
TGI [20]: 12.6 µM
GI50 [21]: 1.9 µM
TGI [21]: 3.5 µM
GI50 [22]: 1.66 µM
TGI [22]: 3.02 µM
GI50 [23]: 2 µM
TGI [23]: 11 µM
GI50 [24]: 1.75 µM
TGI [24]: 3.18 µM
GI50 [25]: 5.32 µM
TGI [25]: 18.9 µM
GI50 [26]: 3.31 µM
TGI [26]: 15.3 µM
GI50 [27]: 3.45 µM
TGI [27]: 10.7 µM
GI50 [28]: 2.2 µM
TGI [28]: 6.2 µM
GI50 [29]: 11.8 µM
TGI [29]: 24 µM
GI50 [30]: 1.71 µM
TGI [30]: 3.08 µM
GI50 [31]: 3.35 µM
TGI [31]: 16 µM
GI50 [32]: 2.91 µM
TGI [32]: 7.69 µM
GI50 [33]: 13.3 µM
TGI [33]: 29.1 µM
GI50 [34]: 2.34 µM
TGI [34]: 6.13 µM
GI50 [35]: 1.27 µM
TGI [35]: 2.58 µM
GI50 [36]: 1.71 µM
TGI [36]: 3.25 µM
GI50 [37]: 1.79 µM
TGI [37]: 3.31 µM
GI50 [38]: 2.09 µM
TGI [38]: 4.23 µM
GI50 [39]: 1.68 µM
TGI [39]: 3.56 µM
GI50 [40]: 1.79 µM
TGI [40]: 3.17 µM
GI50 [41]: 2.16 µM
TGI [41]: 5.35 µM
GI50 [42]: 4.38 µM
TGI [42]: 15.9 µM
GI50 [43]: 1.69 µM
TGI [43]: 3.08 µM
GI50 [44]: 1.65 µM
TGI [44]: 3.06 µM
GI50 [45]: 1.74 µM
TGI [45]: 3.12 µM
GI50 [46]: 3.63 µM
TGI [46]: 12.2 µM
GI50 [47]: 2 µM
TGI [47]: 4.84 µM
GI50 [48]: 1.7 µM
TGI [48]: 3.07 µM
GI50 [49]: 2.71 µM
TGI [49]: 13.7 µM
GI50 [50]: 13.9 µM
TGI [50]: 26.8 µM
GI50 [51]: 1.81 µM
TGI [51]: 3.71 µM
GI50 [52]: 5.65 µM
TGI [52]: 18.1 µM
GI50 [53]: 1.87 µM
TGI [53]: 4.51 µM
GI50 [54]: 1.89 µM
TGI [54]: 3.38 µM
GI50 [55]: 5.45 µM
TGI [55]: 20.8 µM
GI50 [56]: 1.72 µM
TGI [56]: 3.3 µM
GI50 [57]: 2.42 µM
TGI [57]: 6.31 µM

Source: PubChem BioAssay (NCI)
